Measured values published in patent US8518883B2, “Method of reducing deleterious effects of ischemia by administration of a thrombopoietin receptor ligand” (MCW Research Foundation, Inc., priority 2006, dated 2013).

Tests used:
Sprague Dawley rats [1] = experiment: Coronary artery ligation model, Tpo given after the onset of reperfusion; format: in vivo, rat; settings: Tpo 0.05 μg/kg i.v. 10 seconds following reperfusion after 30 min regional ischemia
Description: FIG. 10 is a graphic depiction of the effect of Tpo (0.05 μg/kg) on myocardial infarct size in vivo (as percentage % of area at risk) when administered intravenously 10 seconds after the onset of 3 hours reperfusion following 30 minutes regional myocardial ischemia in vivo induced by suture ligation of the left main coronary artery. *=P<0.05, with Tpo vs. without Tpo (control).
(§1) Animals used in this study were adult male Sprague Dawley rats (200-350 g, generally 300 g). Animals were housed under standard conditions and allowed to feed ad lib. The Animal Care and Use Committee of the Medical College of Wisconsin approved all procedures performed in accordance with the regulations adopted by the National Institutes of Health.
A myocardial infarction was produced via the ligation of the left main artery using 6-0 prolene suture (See, e.g., Clements-Jewery, et al., supra, 2002; Farkas, et al., supra, 2002). Rats were anesthetized with sodium pentobarbital (50 mg/kg i.p.). The left main coronary artery was identified and ligated with a 5-0 Prolene suture threaded through a polyethylene tube to act as an occluder. […]
The heart was sectioned in 2 mm segments from apex to atrio-ventricular groove in a transverse fashion. Each segment was recorded and placed in formalin. […] The percentage of infarction of each slide was expressed as a percentage of the entire area of the heart.

Sprague Dawley rats [2] = experiment: Coronary artery ligation model, regional myocardial ischemia in vivo, Tpo given 15 min prior to ischemia; set-up: species or system rat
Description: as §1
Rats were anesthetized with sodium pentobarbital (50 mg/kg i.p.). Heparin was administered (150 U/kg i.p.) to prevent the formation of a thrombus in the coronary vasculature. A myocardial infarction was produced via the ligation of the left main artery using 6-0 prolene suture (See, e.g., Clements-Jewery, et al., Br. J. Pharmacol. 135:807-815, 2002; Farkas, et al., J. Cardiovasc. Pharmacol. 39:412-424, 2002). The left main coronary artery was identified and ligated with a 5-0 Prolene suture threaded through a polyethylene tube to act as an occluder. A control group included sham operated hearts in which only a suture was passed around the left main coronary artery was performed.
Animals were treated with Tpo (0.005-0.5 micrograms/kg) administered intravenously for 15 minutes prior to the onset of ischemia. Regional ischemia and reperfusion were induced by tightening the occluder and by releasing it. Hearts were then subjected to 30 minutes regional ischemia followed by 3 hours reperfusion. Recovery of left ventricular developed pressure and infarct size/area at risk at 3 hours reperfusion were used to assess resistance to myocardial ischemia. For characterization of infarction size, hearts were perfused with 10 ml bicarbonate buffer containing triphenyltetrazolium chloride (SIGMA) at 37° C.
The heart was sectioned in 2 mm segments from apex to atrio-ventricular groove in a transverse fashion. Each segment was recorded and placed in formalin. After twenty-four (24) hours, the specimen was digitally photographed in a camera mount to normalize specimen-to-lens distance. Each photograph was then appended to Adobe Photoshop (Adobe™) to measure pixel density of infarcted versus non-infarcted areas. The percentage of infarction of each slide was expressed as a percentage of the entire area of the heart.
There was no significant difference in body weight, heart weight or risk zone size between groups. […] Significant differences were found for mean arterial pressure and rate pressure for some groups when compared to sham. For each group, the area at risk compared to total left ventricle weight was calculated. There were no significant differences seen between groups (data not shown).

[3] = 15 min ISCHEMIA, Tpo 0.005 μg/kg i.v.
[4] = 15 min ISCHEMIA, Tpo 0.05 μg/kg i.v.
[5] = 15 min ISCHEMIA, Tpo 0.5 μg/kg i.v.
[6] = 3 hr REPERFUSION, Tpo 0.005 μg/kg i.v.
[7] = 3 hr REPERFUSION, Tpo 0.05 μg/kg i.v.
[8] = 3 hr REPERFUSION, Tpo 0.5 μg/kg i.v.

For Thrombopoietin [Tpo], the Myocardial infarct size (Sprague Dawley rats [1]) was “decrease”, the Heart rate (Sprague Dawley rats [2]; [3]) was 374 ± 12 beats/min and the Mean arterial pressure (Sprague Dawley rats [2]; [3]) was 104 ± 11 mmHg. The Heart rate (Sprague Dawley rats [2]; [4]) was 352 ± 11 beats/min, the Mean arterial pressure (Sprague Dawley rats [2]; [4]) was 124 ± 11 mmHg and the Heart rate (Sprague Dawley rats [2]; [5]) was 382 ± 13 beats/min. It also gave a Mean arterial pressure (Sprague Dawley rats [2]; [5]) of 121 ± 13 mmHg, a Heart rate (Sprague Dawley rats [2]; [6]) of 359 ± 13 beats/min and a Mean arterial pressure (Sprague Dawley rats [2]; [6]) of 92 ± 7 mmHg. The Heart rate (Sprague Dawley rats [2]; [7]) was 332 ± 11 beats/min, the Mean arterial pressure (Sprague Dawley rats [2]; [7]) was 105 ± 11 mmHg and the Heart rate (Sprague Dawley rats [2]; [8]) was 364 ± 13 beats/min. It also gave a Mean arterial pressure (Sprague Dawley rats [2]; [8]) of 108 ± 16 mmHg, a Heart rate (Sprague Dawley rats [2]; BASELINE, Tpo 0.005 μg/kg i.v.) of 386 ± 17 beats/min and a Mean arterial pressure (Sprague Dawley rats [2]; BASELINE, Tpo 0.005 μg/kg i.v.) of 133 ± 13 mmHg. The Heart rate (Sprague Dawley rats [2]; BASELINE, Tpo 0.05 μg/kg i.v.) was 342 ± 16 beats/min, the Mean arterial pressure (Sprague Dawley rats [2]; BASELINE, Tpo 0.05 μg/kg i.v.) was 138 ± 6 mmHg and the Heart rate (Sprague Dawley rats [2]; BASELINE, Tpo 0.5 μg/kg i.v.) was 371 ± 11 beats/min. The Mean arterial pressure (Sprague Dawley rats [2]; BASELINE, Tpo 0.5 μg/kg i.v.) was 144 ± 6 mmHg, the “Optimal concentration of Tpo that afforded maximum reduction of infarct size” value (Sprague Dawley rats [2]; Tpo 0.005-0.5 μg/kg i.v. 15 min prior to ischemia) was 0.05 µg/kg and the “Post ischemic myocardial infarct size” value (Sprague Dawley rats [2]; Tpo i.v. 15 min prior to 30 min regional ischemia, 3 hours reperfusion, 'U' shaped dose dependence) was “decreased”.
